# Reference: patent publication US20090054338A1, “Synergisms between repartitioning and immunomodulating compounds” (priority 2007, published 2009)
# What was measured:
# [1] = system: mice; test: Stress-induced mortality (modified physostigmine-induced lethality test); type: in vivo
# Text: A modification of the physostigmine-induced lethality test that successfully was used for testing of sedation by Schering in the loratadine project (Villani F. J., et al., U.S. Pat. No. 4,659,716, 1987) and by Sepracor in the desloratadine project (Aberg, G. et al. U.S. Pat. No. 5,595,997) was used. In short, mice that previously had not been housed together, suffer from severe stress when placed together (n=10) in a new environment, such as a small cage with which they are not familiar. […] Similarly, increased stress by ractopamine in livestock animals has been reported by Marchant-Forde et al., 2003. […] The number of surviving mice was counted 30 minutes after the animals had been placed in the test-cage, which was 60 min after the administration of ractopamine.
# [2] = system: newborn calves; test: In vivo study in newborn calves (survival to weaning); set-up: species or system cattle
# Description: The present study was performed at a farm with a high rate of mortality of newborn calves from Cryptosporidiosis and upper respiratory infections.
# Two groups of 13 newborn calves were studied. All animals were given milk replacement and beta 1.3/1.6 D-glucan was added to the milk replacement for the second group.
# [3] = system: adrenergic beta-2 receptors; test: Down-regulation of adrenergic beta-2 receptors, receptor binding on adipocytes; type: in vivo; conditions: rats
# Text: The populations of adrenergic beta-2 receptors on cells (adipocytes) from rats are studied.
# [4] = system: barnacle naupii; conditions: cited from earlier work
compound,measurement,setting,value
CNC(=O)Oc1ccc2c(c1)[C@]1(C)CCN(C)[C@@H]1N2C [physostigmine],lethality,"[1]; stressed grouped mice (n=10), 1.0 mg/kg s.c.",~100%
CC(CCc1ccc(O)cc1)NCC(O)c1ccc(O)cc1 (stereo not drawn) [ractopamine],stress,[1]; grouped mice in unfamiliar cage,increased the stress
same,mortality,[1]; mice given a sub-lethal dose of physostigmine,increased mortality
beta 1.3/1.6 D-glucan [Agrastim®],survival of calves,"[2]; 8 weeks treatment in milk replacement, control 7 out of 13",12 out of 13
same,Calves Weaned,"[2]; 13 calves born, 500 mg day 1, 250 mg/day day 2-56 in milk replacement, farm with high calf mortality",12
same,effect on salbutamol-induced down-regulation of adrenergic beta-2 receptors,[3]; glucan given one week before pump implantation and continuously thereafter,decreased or inhibited
same,stress and stress-induced mortality in ractopamine-treated animals,"[1]; mice pretreated orally daily for five days, survivors counted 30 min after placing in test-cage, 60 min after ractopamine",significantly decreased stress and stress-induced mortality
CC(C)(C)NCC(O)c1ccc(O)c(CO)c1 (racemic) [salbutamol],adrenergic beta-2 receptor population on adipocytes,[3]; one and two weeks continuous s.c. administration by Alza osmotic pumps,down-regulated
same,LD50,[4],approximately 1.8 μg/ml
